Source: patent US20250353891A1 (MEDIMMUNE LIMITED, priority 2022, published 2025)
Starred links: 1 amine or outer side, 2 acyl side, 3 side chain; linkers in the order of their positions; H or OH if unused. Non-standard residues stand in square brackets, D forms with d. Residues, ends and D or L forms follow the SMILES beside them. Groups on a side chain read outwards from the residue. *: point of attachment. C20 diacid = O=C(O)CCCCCCCCCCCCCCCCCCC(=O)*; C18 diacid = O=C(O)CCCCCCCCCCCCCCCCC(=O)*; γGlu = O=C(O)[C@H](CCC(=O)[*:2])N[*:1]; αMeF = C[C@](N)(Cc1ccccc1)C(=O)O; AEEA = NCCOCCOCC(=O)O; Aib = CC(C)(N)C(=O)O

Assays:
[1] = molecular target: human glucagon receptor (hGCGR) (Homo sapiens, UniProt P47871); assay: cAMP production (HTRF) in CHO cells expressing hGCGR; format: cell-based; design: expressed in transfected cells; conditions: Table 6, peptides modified at position 17; cAMP in CHO hGCGR cells; geometric mean; read-out: hGluc-R EC50
In short: (§1)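 Read-out: HTRF cAMP (anti-cAMP cryptate donor, cAMP-d2 acceptor in conjugate/lysis buffer), converted to % Delta F and fitted by 4-parameter logistic for EC50. Cell densities were 1×10^5 cells/mL (hGLP-1R) or 2×10^5 cells/mL (hGCGR). Stimulation lasted 30 min at room temperature.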

[2] = molecular target: human GLP-1 receptor (hGLP-1R) (Homo sapiens, UniProt P43220); assay: cAMP production (HTRF) in CHO cells expressing hGLP-1R; format: cell-based; design: expressed in transfected cells; conditions: for EC50: Table 6, peptides modified at position 17, cAMP in CHO hGLP-1R cells, geometric mean, read-out: hGLP-1R EC50; for % Relative Potency Ratio: Table 6, % GLP-1R activity relative to GLP-1 / % GlucR activity relative to glucagon
In short: as §1

Chain of human glucagon receptor (hGCGR) (P47871 26-477): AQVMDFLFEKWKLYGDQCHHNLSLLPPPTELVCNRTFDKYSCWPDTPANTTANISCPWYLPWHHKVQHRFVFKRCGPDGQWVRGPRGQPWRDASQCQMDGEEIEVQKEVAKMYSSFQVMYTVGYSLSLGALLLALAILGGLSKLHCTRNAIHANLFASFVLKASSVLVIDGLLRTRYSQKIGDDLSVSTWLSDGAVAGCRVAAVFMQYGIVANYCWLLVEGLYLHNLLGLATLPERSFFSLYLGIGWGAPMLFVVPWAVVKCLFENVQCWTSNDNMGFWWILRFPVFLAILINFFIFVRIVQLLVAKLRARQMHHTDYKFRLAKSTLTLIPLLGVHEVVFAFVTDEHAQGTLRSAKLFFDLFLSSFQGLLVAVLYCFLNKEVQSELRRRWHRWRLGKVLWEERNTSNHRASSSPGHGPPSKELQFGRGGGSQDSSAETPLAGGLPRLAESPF
Chain of human GLP-1 receptor (hGLP-1R) (P43220 24-463): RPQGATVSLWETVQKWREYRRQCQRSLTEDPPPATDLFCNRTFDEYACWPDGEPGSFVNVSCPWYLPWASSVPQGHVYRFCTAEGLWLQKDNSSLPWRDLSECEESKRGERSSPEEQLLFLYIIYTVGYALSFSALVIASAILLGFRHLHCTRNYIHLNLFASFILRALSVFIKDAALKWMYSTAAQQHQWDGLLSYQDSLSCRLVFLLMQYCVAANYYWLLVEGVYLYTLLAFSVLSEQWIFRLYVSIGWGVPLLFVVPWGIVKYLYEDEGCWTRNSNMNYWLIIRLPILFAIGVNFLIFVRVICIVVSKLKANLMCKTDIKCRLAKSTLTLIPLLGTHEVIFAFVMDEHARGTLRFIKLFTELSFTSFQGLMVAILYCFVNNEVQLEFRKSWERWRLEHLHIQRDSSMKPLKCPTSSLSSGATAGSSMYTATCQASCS

Structure (SMILES) | EC50 [1] [nM] | EC50 [2] [nM] | % Relative Potency Ratio [2]
CC(C)C[C@H](NC(=O)[C@H](Cc1c[nH]c2ccccc12)NC(=O)[C@H](CCC(N)=O)NC(=O)[C@@H](NC(=O)[C@H](Cc1ccccc1)NC(=O)[C@H](CC(=O)O)NC(=O)[C@H](CCCNC(=N)N)NC(=O)[C@H](C)NC(=O)[C@H](CCCNC(=N)N)NC(=O)[C@H](CCCCNC(=O)COCCOCCNC(=O)COCCOCCNC(=O)CC[C@H](NC(=O)CCCCCCCCCCCCCCCCC(=O)O)C(=O)O)NC(=O)[C@@H](NC(=O)[C@H](CC(=O)O)NC(=O)[C@H](CC(C)C)NC(=O)[C@](C)(Cc1ccccc1)NC(=O)[C@H](CCCCN)NC(=O)[C@H](CO)NC(=O)[C@@H](NC(=O)[C@H](CC(=O)O)NC(=O)[C@H](CO)NC(=O)[C@@H](NC(=O)[C@H](Cc1ccccc1)NC(=O)[C@@H](NC(=O)CNC(=O)[C@H](CCC(N)=O)NC(=O)C(C)(C)NC(=O)[C@@H](N)Cc1c[nH]cn1)[C@@H](C)O)[C@@H](C)O)C(C)C)[C@@H](C)O)C(C)C)C(=O)N[C@@H](CC(C)C)C(=O)NC(C)(C)C(=O)N[C@H](C(=O)N[C@@H](CCC(=O)O)C(=O)O)[C@@H](C)O [Peptide 487] (H-H[Aib]QGTFTSDVSK[αMeF]LDTK([AEEA-AEEA-γGlu-C18 diacid])RARDFVQWLL[Aib]TE-OH) | 0.164 | 0.0655 | 5.0
CC(C)C[C@H](NC(=O)[C@H](Cc1c[nH]c2ccccc12)NC(=O)[C@H](CCC(N)=O)NC(=O)[C@@H](NC(=O)[C@H](Cc1ccccc1)NC(=O)[C@H](CC(=O)O)NC(=O)[C@H](CCCNC(=N)N)NC(=O)[C@H](C)NC(=O)[C@H](CCCNC(=N)N)NC(=O)[C@H](CCCCNC(=O)COCCOCCNC(=O)COCCOCCNC(=O)CC[C@H](NC(=O)CCCCCCCCCCCCCCCCCCC(=O)O)C(=O)O)NC(=O)[C@@H](NC(=O)[C@H](CC(=O)O)NC(=O)[C@H](CC(C)C)NC(=O)[C@](C)(Cc1ccccc1)NC(=O)[C@H](CCCCN)NC(=O)[C@H](CO)NC(=O)[C@@H](NC(=O)[C@H](CC(=O)O)NC(=O)[C@H](CO)NC(=O)[C@@H](NC(=O)[C@H](Cc1ccccc1)NC(=O)[C@@H](NC(=O)CNC(=O)[C@H](CCC(N)=O)NC(=O)C(C)(C)NC(=O)[C@@H](N)Cc1c[nH]cn1)[C@@H](C)O)[C@@H](C)O)C(C)C)[C@@H](C)O)C(C)C)C(=O)N[C@@H](CC(C)C)C(=O)NC(C)(C)C(=O)N[C@H](C(=O)N[C@@H](CCC(=O)O)C(=O)O)[C@@H](C)O [Peptide 488] (H-H[Aib]QGTFTSDVSK[αMeF]LDTK([AEEA-AEEA-γGlu-C20 diacid])RARDFVQWLL[Aib]TE-OH; N-terminus assumed) | 0.301 | 0.202 | 2.9
CC(C)C[C@H](NC(=O)[C@H](Cc1c[nH]c2ccccc12)NC(=O)[C@H](CCC(N)=O)NC(=O)[C@@H](NC(=O)[C@H](Cc1ccccc1)NC(=O)[C@H](CC(=O)O)NC(=O)[C@H](CCCNC(=N)N)NC(=O)[C@H](C)NC(=O)[C@H](CCCNC(=N)N)NC(=O)[C@H](CCCCNC(=O)COCCOCCNC(=O)COCCOCCNC(=O)CC[C@H](NC(=O)CCCCCCCCCCCCCCCCC(=O)O)C(=O)O)NC(=O)[C@@H](NC(=O)[C@H](CC(=O)O)NC(=O)[C@H](CC(C)C)NC(=O)[C@](C)(Cc1ccccc1)NC(=O)[C@H](CCCCN)NC(=O)[C@H](CO)NC(=O)[C@@H](NC(=O)[C@H](CC(=O)O)NC(=O)[C@H](CO)NC(=O)[C@@H](NC(=O)[C@H](Cc1ccccc1)NC(=O)[C@@H](NC(=O)CNC(=O)[C@H](CCC(N)=O)NC(=O)C(C)(C)NC(=O)[C@@H](N)Cc1c[nH]cn1)[C@@H](C)O)[C@@H](C)O)C(C)C)[C@@H](C)O)C(C)C)C(=O)N[C@@H](CC(C)C)C(=O)NC(C)(C)C(=O)N[C@H](C(=O)N[C@@H](CCC(=O)O)C(N)=O)[C@@H](C)O [Peptide 489] (H-H[Aib]QGTFTSDVSK[αMeF]LDTK([AEEA-AEEA-γGlu-C18 diacid])RARDFVQWLL[Aib]TE-NH2; N-terminus assumed) | 0.168 | 0.0228 | 14.5
CC(C)C[C@H](NC(=O)[C@H](Cc1c[nH]c2ccccc12)NC(=O)[C@H](CCC(N)=O)NC(=O)[C@@H](NC(=O)[C@H](Cc1ccccc1)NC(=O)[C@H](CC(=O)O)NC(=O)[C@H](CCCNC(=N)N)NC(=O)[C@H](C)NC(=O)[C@H](CCCNC(=N)N)NC(=O)[C@H](CCCCNC(=O)COCCOCCNC(=O)COCCOCCNC(=O)CC[C@H](NC(=O)CCCCCCCCCCCCCCCCCCC(=O)O)C(=O)O)NC(=O)[C@@H](NC(=O)[C@H](CC(=O)O)NC(=O)[C@H](CC(C)C)NC(=O)[C@](C)(Cc1ccccc1)NC(=O)[C@H](CCCCN)NC(=O)[C@H](CO)NC(=O)[C@@H](NC(=O)[C@H](CC(=O)O)NC(=O)[C@H](CO)NC(=O)[C@@H](NC(=O)[C@H](Cc1ccccc1)NC(=O)[C@@H](NC(=O)CNC(=O)[C@H](CCC(N)=O)NC(=O)C(C)(C)NC(=O)[C@@H](N)Cc1c[nH]cn1)[C@@H](C)O)[C@@H](C)O)C(C)C)[C@@H](C)O)C(C)C)C(=O)N[C@@H](CC(C)C)C(=O)NC(C)(C)C(=O)N[C@H](C(=O)N[C@@H](CCC(=O)O)C(N)=O)[C@@H](C)O [Peptide 490] (H-H[Aib]QGTFTSDVSK[αMeF]LDTK([AEEA-AEEA-γGlu-C20 diacid])RARDFVQWLL[Aib]TE-NH2; N-terminus assumed) | 0.396 | 0.069 | 11.4
CC(C)C[C@H](NC(=O)[C@H](Cc1c[nH]c2ccccc12)NC(=O)[C@H](CCCNC(=N)N)NC(=O)[C@@H](NC(=O)[C@H](Cc1ccccc1)NC(=O)[C@H](CC(=O)O)NC(=O)[C@H](CCCNC(=N)N)NC(=O)[C@H](C)NC(=O)[C@H](CCCNC(=N)N)NC(=O)[C@H](CCCCNC(=O)COCCOCCNC(=O)COCCOCCNC(=O)CC[C@H](NC(=O)CCCCCCCCCCCCCCCCC(=O)O)C(=O)O)NC(=O)[C@@H](NC(=O)[C@H](CC(=O)O)NC(=O)[C@H](CC(C)C)NC(=O)[C@](C)(Cc1ccccc1)NC(=O)[C@H](CCCCN)NC(=O)[C@H](CO)NC(=O)[C@@H](NC(=O)[C@H](CC(=O)O)NC(=O)[C@H](CO)NC(=O)[C@@H](NC(=O)[C@H](Cc1ccccc1)NC(=O)[C@@H](NC(=O)CNC(=O)[C@H](CCC(N)=O)NC(=O)C(C)(C)NC(=O)[C@@H](N)Cc1c[nH]cn1)[C@@H](C)O)[C@@H](C)O)C(C)C)[C@@H](C)O)C(C)C)C(=O)N[C@@H](CC(C)C)C(=O)NC(C)(C)C(=O)N[C@H](C(=O)N[C@@H](CCC(=O)O)C(=O)O)[C@@H](C)O [Peptide 491] (H-H[Aib]QGTFTSDVSK[αMeF]LDTK([AEEA-AEEA-γGlu-C18 diacid])RARDFVRWLL[Aib]TE-OH; N-terminus assumed) | 0.232 | 0.0736 | 6.2
